In PubChem BioAssay (NCI) one finds TGI and GI50 data, which are given here for 13 compounds.

Each structure is given as a SMILES string. Several values for one entry are separate records, joined by “and”; a condition that tells them apart may be missing. Equal values may be shown once.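 Method: 48-hour compound exposure of cells in 96-well plates, five concentrations, linear interpolation of endpoints. Here, GI50 denotes the concentration required for 50% inhibition of growth. TGI is the concentration that stops growth completely.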

Among the test systems are CCRF-CEM leukemia; DMS 114 small cell lung; EKVX NSCLC; M14 melanoma; OVCAR-4 ovarian; SNB-78 CNS; TK-10 renal; CAKI-1 renal; SF-268 CNS; BT-549 breast.
What all share (assay): NCI tumour cell line growth inhibition, 48 h

On to `CC1=C[P+](Cc2ccccc2)(c2ccccc2)CC1` (stereo unspecified), for which the TGI in the assay on CCRF-CEM leukemia, in the assay with DMS 114 small cell lung, with EKVX NSCLC, in the assay on M14 melanoma, with OVCAR-4 ovarian and with SNB-78 CNS was more than 100 µM throughout. The compound also had a TGI with TK-10 renal of more than 100 µM.

With `O=C1CC(O)(c2ccccc2)C(c2ccccc2)=C1c1ccccc1` (stereo unspecified), the TGI in the assay with CAKI-1 renal was more than 100 µM; in the assay on CCRF-CEM leukemia, more than 100 µM; with DMS 114 small cell lung it was 89.8 µM; in the assay on EKVX NSCLC it was more than 100 µM; in the assay on M14 melanoma, more than 100 µM; with OVCAR-4 ovarian, more than 100 µM. Further, the TGI with SF-268 CNS, with SNB-78 CNS and in the assay on TK-10 renal was more than 100 µM in each case.

In the case of `CCOc1ccc(NC(=O)C2=C(C)NC(C)=C(C(=O)Nc3ccc(OCC)cc3)C2c2ccccc2)cc1`, the TGI with CAKI-1 renal, with CCRF-CEM leukemia, with DMS 114 small cell lung, with EKVX NSCLC, in the assay with M14 melanoma and in the assay on OVCAR-4 ovarian was more than 100 µM in each case. The TGI in the assay on SF-268 CNS, in the assay on SNB-78 CNS and in the assay on TK-10 renal was more than 100 µM in each case.

As to `Clc1cc2n[se]nc2cc1Cl`, the TGI in the assay on CAKI-1 renal, in the assay with CCRF-CEM leukemia, with DMS 114 small cell lung, with EKVX NSCLC, in the assay with M14 melanoma and in the assay on OVCAR-4 ovarian was more than 100 µM each time. In addition, the TGI in the assay with SF-268 CNS, in the assay with SNB-78 CNS and with TK-10 renal was more than 100 µM throughout.

For `CCC[CH2][Sn]1([CH2]CCC)[O]C(=O)c2ccc(C)cc2[O]1`, the GI50 in the assay on CAKI-1 renal is 0.229 µM; in the assay on CCRF-CEM leukemia, 0.222 µM; in the assay with DMS 114 small cell lung it was 0.21 µM; with EKVX NSCLC, 0.994 µM; with M14 melanoma it was 0.584 µM; with OVCAR-4 ovarian it was 1.11 µM. Besides, the GI50 was 0.46 µM with SF-268 CNS, 0.526 µM in the assay with SNB-78 CNS and 0.297 µM in the assay with TK-10 renal. The TGI turned out to be 0.669 µM with CAKI-1 renal; 0.874 µM with CCRF-CEM leukemia; 0.587 µM in the assay with DMS 114 small cell lung; 2.23 µM in the assay on EKVX NSCLC; 1.84 µM with M14 melanoma; 2.43 µM in the assay with OVCAR-4 ovarian. The TGI was 1.46 µM in the assay on SF-268 CNS, 2.34 µM in the assay with SNB-78 CNS and 0.766 µM in the assay with TK-10 renal.

As to `CSCCOC(=O)C(=[N+]=[N-])c1ccc([N+](=O)[O-])cc1`, the TGI with CAKI-1 renal, in the assay on CCRF-CEM leukemia, in the assay on DMS 114 small cell lung, with EKVX NSCLC, in the assay on M14 melanoma and with OVCAR-4 ovarian was more than 100 µM in each case. Further, the TGI in the assay with SF-268 CNS and in the assay with TK-10 renal was more than 100 µM throughout.

With `CCOC(=O)c1ccc(NC(=O)SCCC(=O)O)cc1`, the TGI with CCRF-CEM leukemia is more than 100 µM; with DMS 114 small cell lung, more than 100 µM; in the assay with EKVX NSCLC it was more than 100 µM; in the assay with M14 melanoma, more than 100 µM; with SF-268 CNS it was 54 µM; in the assay with SNB-78 CNS, more than 100 µM. Moreover, the TGI with TK-10 renal was more than 100 µM.

Turning to `Cc1cc2c(c3oc(C4(C)OC4C4OC4C)cc(=O)c13)C(=O)c1c(O)c(C3CC(C)(N(C)C)C(O)C(C)O3)cc(C3CC(N(C)C)C(O)C(C)O3)c1C2=O` (stereo unspecified), the GI50 is 0.000234 µM with BT-549 breast; 0.000145 µM in the assay with CAKI-1 renal; 0.00013 µM in the assay with CCRF-CEM leukemia; 0.000101 µM in the assay with M14 melanoma; 0.000187 µM in the assay with SNB-78 CNS; 0.00027 µM in the assay on TK-10 renal. Also, the TGI in the assay on BT-549 breast was 0.000414 µM and 0.00222 µM; with CCRF-CEM leukemia, 0.0499 µM and 0.041 µM; in the assay with EKVX NSCLC, 0.00078 µM and 0.000929 µM; in the assay on M14 melanoma, 0.000196 µM and 0.000148 µM; with TK-10 renal it was 0.0116 µM and 0.0501 µM.

With `N#CS.N=C=S.N=C=S.[Cu+2].[NH2-].[NH2-].[NH2-].[NH2-].c1ccc2ncccc2c1`, the GI50 is more than 100 µM in the assay on BT-549 breast; more than 100 µM in the assay on CAKI-1 renal; 24.3 µM in the assay with CCRF-CEM leukemia; 47.4 µM in the assay with EKVX NSCLC; more than 100 µM in the assay with M14 melanoma; 20.6 µM in the assay with OVCAR-4 ovarian. In addition, the GI50 with SF-268 CNS is 49.7 µM; in the assay on TK-10 renal, 90 µM. Further, the TGI in the assay on BT-549 breast was more than 100 µM; in the assay on CAKI-1 renal, more than 100 µM; with CCRF-CEM leukemia it was 57.5 µM; in the assay with EKVX NSCLC, more than 100 µM; in the assay on M14 melanoma, more than 100 µM; in the assay with OVCAR-4 ovarian it was 43.4 µM. Further, the TGI with SF-268 CNS and in the assay with TK-10 renal was more than 100 µM throughout.

On to `COc1ccc2c(c1OC)OCC(CN(C)C)C2=O` (stereo unspecified), for which the TGI came to 38.7 µM in the assay with BT-549 breast; 11.3 µM in the assay with CAKI-1 renal; 8.54 µM in the assay with CCRF-CEM leukemia; 49.9 µM in the assay with EKVX NSCLC; 31.5 µM with M14 melanoma; 60.5 µM with OVCAR-4 ovarian. Further, the results for the TGI in the assay on SF-268 CNS and with TK-10 renal were 53.2 µM and 34.4 µM, respectively.

`Cc1cn2c(/C=N/N=C(N)N)c(-c3cccnc3)nc2s1`: the GI50 was 12.8 µM in the assay with BT-549 breast; 8.07 µM with CAKI-1 renal; 4.38 µM with CCRF-CEM leukemia; 16.7 µM in the assay with EKVX NSCLC; 10 µM in the assay on M14 melanoma; 15.7 µM with OVCAR-4 ovarian. In addition, the GI50 in the assay with SF-268 CNS is 12.9 µM; in the assay with TK-10 renal, 6.85 µM. Further, the TGI in the assay with BT-549 breast turned out to be 30.9 µM; with CAKI-1 renal, 22.4 µM; in the assay on CCRF-CEM leukemia it was 55 µM; in the assay with EKVX NSCLC, 36.3 µM; with M14 melanoma, 23.5 µM; in the assay with OVCAR-4 ovarian, 29.6 µM. Besides, the figures for the TGI in the assay with SF-268 CNS and with TK-10 renal were 35.8 µM and 21.3 µM, respectively.

Consider `NC1=NCCN1CC(=O)O`, for which the GI50 with BT-549 breast is more than 10000 µM; in the assay with CCRF-CEM leukemia, more than 10000 µM; with M14 melanoma, more than 10000 µM; with OVCAR-4 ovarian it was more than 10000 µM; with SF-268 CNS, more than 1000 µM; in the assay with TK-10 renal, more than 10000 µM. Moreover, the TGI in the assay on BT-549 breast, in the assay with CAKI-1 renal, with CCRF-CEM leukemia, with EKVX NSCLC, in the assay on M14 melanoma and with OVCAR-4 ovarian was more than 10000 µM throughout. Moreover, the TGI in the assay on SF-268 CNS and with TK-10 renal was more than 10000 µM in each case.

Consider `CCCCCCCCCCCCCCCCOP(=O)(O)OP(=O)(O)OCC1OC(n2ccc(N)nc2=O)C(O)C1O` (stereo unspecified), for which the TGI was more than 100 µM in the assay on BT-549 breast; more than 100 µM with CAKI-1 renal; more than 100 µM with CCRF-CEM leukemia; more than 100 µM with EKVX NSCLC; > 100 µM and 98.4 µM with M14 melanoma; more than 100 µM in the assay with OVCAR-4 ovarian. Moreover, the TGI in the assay with SF-268 CNS and with TK-10 renal was more than 100 µM throughout. Besides, in the assay on CAKI-1 renal, the GI50 is > 100 µM and 26.1 µM.
